Columns and labels:
carbonic anhydrase = test: in vitro carbonic anhydrase activity, simplified method of Maren; assay type: biochemical
Procedure: The procedure required the use of a specialized glass reaction vessel to which was added 0.4 ml phenol red indicator (0.00125%), 0.25 to 0.30 ml heparinized blood containing 2 enzyme units of carbonic anhydrase, 0.1 ml drug solution (0.01 to 100 mg/L) and 0.1 ml of 0.255 M carbonate buffer. […] Each reagent was added at a specified time and in a specified order. […] Reaction time was the time for the uncatalyzed reaction time. […] By varying the time before adding the carbonate buffer and then determining the reaction time, the equilibration time can be accurately determined. The reaction time was averaged over three determinations. A range of drug concentrations were reacted and the concentration of drug causing 50% inhibition of enzyme (I50) read from a plot of reaction time against drug concentration. (If two enzyme units are added, then the concentration of drug yielding a reaction time corresponding to the activity of one unit is taken as the I50).

[1] = system: eye of normal adult white rabbits; test: Salted rabbit test: intraocular pressure after topical instillation; assay type: in vivo; settings: for IOP change, Av. Chg.: 1% w/v suspension, 3 drops topical, vs placebo fellow eye, six rabbits
Procedure: In particular, an initial drop from the test formulation followed by two drops at one minute intervals are applied to one eye of each of six adult white rabbits that had been maintained on a diet containing 0.5% sodium. The treated eye was selected randomly, whereas, the fellow eye received placebo; the observer was masked. Results identified a small but significant reduction of intraocular pressure in the treated eye at 30, 60 and 120 minutes.
One drop, followed by two drops each at one minute intervals, was applied to one eye of normal adult white rabbits. Six rabbits were used in the experiment. The treated eye was selected randomly, whereas, the fellow eye received placebo. The observer was masked. The intraocular pressure (IOP) was measured with a Digilab pneumotonometer, initially and every ten minutes for 120 minutes following instillation of the anti-glaucoma agent. A drop of local anesthetic was applied just prior to making the measurement.

Structure (SMILES) | I50 (concentration of drug causing 50% inhibition of enzyme), averaged (carbonic anhydrase; heparinized blood containing 2 enzyme units of carbonic anhydrase, 0° C.) | IOP change, Av. Chg. ([1]; 10 minutes) | IOP change, Av. Chg. ([1]; 20 minutes) | IOP change, Av. Chg. ([1]; 30 minutes) | IOP change, Av. Chg. ([1]; 40 minutes) | IOP change, Av. Chg. ([1]; 50 minutes) | IOP change, Av. Chg. ([1]; 60 minutes) | IOP change, Av. Chg. ([1]; 70 minutes) | IOP change, Av. Chg. ([1]; 80 minutes) | IOP change, Av. Chg. ([1]; 90 minutes) | IOP change, Av. Chg. ([1]; 100 minutes) | IOP change, Av. Chg. ([1]; 110 minutes) | IOP change, Av. Chg. ([1]; 120 minutes) | effect on intraocular pressure (IOP) in vivo (in words) ([1]; after topical administration) | lowering of IOP, statistical significance ([1]; all time intervals, 10 to 120 minutes) | time required for carbonic anhydrase to reach an equilibrium with drug (carbonic anhydrase; time between addition of drug solution and carbonate buffer)
CNS(=O)(=O)c1nnc(NC(C)=O)s1 [methyl acetazolamide, N-methyl-2-acetylamino-1,3,4-thiadiazole-5-sulfonamide] | 0.520 mg/L | -2 mm Hg | -1.67 mm Hg | -2.33 mm Hg | -0.40 mm Hg | -1.83 mm Hg | -1.67 mm Hg | -1.67 mm Hg | -2.14 mm Hg | -1.50 mm Hg | -2.67 mm Hg | -0.67 mm Hg | -1.5 mm Hg | able to reduce intraocular pressure | statistically significant | 
Nc1ccc(S(N)(=O)=O)cc1 [sulfanilamide, reference compound] |  |  |  |  |  |  |  |  |  |  |  |  |  |  |  | 10 s
